The series deals with GENE-TOX genotoxicity assays, various organisms and cells. The series is described as follows: GENE-TOX mutagenicity studies. To be noted: for call: Assay Type: In vivo carcinogenicity studies.
[1] abbreviates: Species/Cell Type: Drosophila melanogaster, Assay Type: Sex-linked recessive lethal gene mutation, Assay Code: SRL+, Evaluation Type: Evaluation A (Pre-1980).
Setting [2] is: Species/Cell Type: Drosophila melanogaster, Sex: Male, Assay Type: Heritable translocation test, chromosome aberrations, Assay Code: DHT-, Evaluation Type: Evaluation A (Pre-1980).
Where [3] appears, read: Species/Cell Type: Human lymphocytes or leukocytes, Assay Type: Chromosome aberrations in vitro, Assay Code: CY7-, Evaluation Type: Evaluation A (Pre-1980).
The mark [4] stands for this setting: Species/Cell Type: Rodents, Sex: Male, Assay Type: Dominant lethal test, Assay Code: DLT-, Evaluation Type: Evaluation A (Pre-1980).
Where [5] appears, read: Species/Cell Type: Drosophila melanogaster, Assay Type: Sex-linked recessive lethal gene mutation, Assay Code: SRL-, Evaluation Type: Evaluation A (Pre-1980).
Setting [6] is: Species/Cell Type: Escherichia coli polA (W3119 vs P3478), Assay Type: Rec-assay, DNA effects (bacterial DNA repair), Assay Code: RE1T, Evaluation Type: Evaluation A (Pre-1980).
[7] abbreviates: Species/Cell Type: Nonhuman, Assay Code: CCGT, Evaluation Type: Evaluation A (Pre-1980).
[8] abbreviates: Species/Cell Type: Salmonella typhimurium (one or more of the five standard strains: TA98, TA100, TA1535, TA1537, and TA1538), Assay Type: Histidine reverse gene mutation, Ames assay, Assay Code: SAL+*, Activation: With metabolic activation, Evaluation Type: Evaluation A (Pre-1980).
The mark [9] stands for this setting: Species/Cell Type: Mouse (BALB/c-3T3) cells, Assay Type: Cell transformation, Assay Code: CTB-, Evaluation Type: Evaluation A (Pre-1980).
Setting [10] is: Species/Cell Type: Syrian hamster embryo (SHE) cells, Assay Type: Cell transformation, clonal assay, Assay Code: CTC-, Evaluation Type: Evaluation A (Pre-1980).

Activity calls are given as the source filed them. No rule for the calls is given here.

Consider 9 compounds from PubChem BioAssay AID1259408 (Genetic Toxicology Data Bank (GENE-TOX), 2018).

For the compound `CCN(CC)C(=O)[C@@H]1C=C2c3cccc4[nH]cc(c34)C[C@H]2N(C)C1`, the mutagenic call by setting is: (Species/Cell Type: Allium cepa, Assay Type: Chromosome aberrations, Assay Code: ALC+, Evaluation Type: Evaluation A (Pre-1980)) “active; positive”; (Species/Cell Type: Arabidopsis species, Assay Type: Gene mutation, Assay Code: ARM-, Evaluation Type: Evaluation A (Pre-1980)) “inactive; negative”; (Species/Cell Type: Drosophila melanogaster, Assay Type: Aneuploidy, partial sex chromosome loss, chromosome aberrations, Assay Code: DAP+M, Evaluation Type: Evaluation A (Pre-1980)) “active; positive”; (Species/Cell Type: Drosophila melanogaster, Assay Type: Aneuploidy, sex chromosome gain, chromosome aberrations, Assay Code: DAG+M, Evaluation Type: Evaluation A (Pre-1980)) “active; positive”; (Species/Cell Type: Drosophila melanogaster, Assay Type: Aneuploidy, whole sex chromosome loss, chromosome aberrations, Assay Code: DAC+M, Evaluation Type: Evaluation A (Pre-1980)) “active; positive”; under setting [1], “active; positive”. For the same compound, the mutagenic call reads like this: under setting [2], “inactive; negative”; (Species/Cell Type: Hordeum vulgare (barley), Assay Type: Chromosome aberrations, Assay Code: HOC+, Evaluation Type: Evaluation A (Pre-1980)) “active; positive”; under setting [3], “inactive; negative”; (Species/Cell Type: Human lymphocytes or leukocytes, Assay Type: Chromosome aberrations in vivo, Assay Code: CY8T, Evaluation Type: Evaluation A (Pre-1980)) “no conclusion”; (Species/Cell Type: Mammalian germ cells, Sex: Male, Assay Type: Chromosome aberrations in vivo, Assay Code: CY9-, Evaluation Type: Evaluation A (Pre-1980)) “inactive; negative”; (Species/Cell Type: Mammalian oocytes or early embryo, Assay Type: Chromosome aberrations in vivo, Assay Code: CYO-, Evaluation Type: Evaluation A (Pre-1980)) “inactive; negative”. The mutagenic call is, setting by setting: (Species/Cell Type: Mammalian polychromatic erythrocytes, Assay Type: Micronucleus test, chromosome aberrations, Assay Code: MNTT, Evaluation Type: Evaluation A (Pre-1980)) “no conclusion”; (Species/Cell Type: Nonhuman, Assay Type: Chromosome aberrations in vitro, Assay Code: CY&-, Evaluation Type: Evaluation A (Pre-1980)) “inactive; negative”; under setting [4], “inactive; negative”; (Species/Cell Type: Vicia faba, Assay Type: Chromosome aberrations, Assay Code: VIC-, Evaluation Type: Evaluation A (Pre-1980)) “inactive; negative”.

`NC(Cc1ccc(N(CCCl)CCCl)cc1)C(=O)O` (stereo not drawn): the mutagenic call under setting [1] was “active; positive”. Besides, the call (Species/Cell Type: Nonhuman, Assay Code: CCG+, Evaluation Type: Evaluation A (Pre-1980)) was “active; positive”.

As to `NC1CCCCC1`, the mutagenic call is, setting by setting: (Species/Cell Type: Drosophila melanogaster, Assay Type: Aneuploidy, whole sex chromosome loss, chromosome aberrations, Assay Code: DACT, Evaluation Type: Evaluation A (Pre-1980)) “no conclusion”; under setting [5], “inactive; negative”; under setting [2], “inactive; negative”; under setting [6], “no conclusion”; under setting [3], “inactive; negative”; (Species/Cell Type: Mammalian germ cells, Sex: Male, Assay Type: Chromosome aberrations in vivo, Assay Code: CY9+, Evaluation Type: Evaluation A (Pre-1980)) “active; positive”. Besides, the mutagenic call is “inactive; negative” (Species/Cell Type: Nonhuman bone marrow, Assay Type: Chromosome aberrations, in vivo, Assay Code: CY#-, Evaluation Type: Evaluation A (Pre-1980)); “active; positive” (Species/Cell Type: Nonhuman, Assay Type: Chromosome aberrations in vitro, Assay Code: CY&+D, Dose Response: With dose response, Evaluation Type: Evaluation A (Pre-1980)); “active; positive” (Species/Cell Type: Rat, Sex: Male, Assay Type: Sperm morphology, Assay Code: SPA+, Evaluation Type: Evaluation A (Pre-1980)); “inactive; negative” under setting [4]; “no conclusion” (Species/Cell Type: Rodents, Sex: Male, Assay Type: Dominant lethal test, Assay Code: DLTT, Evaluation Type: Evaluation A (Pre-1980)); “no conclusion” (Species/Cell Type: Salmonella typhimurium, Serratia marcesens, Assay Type: Forward and reverse gene mutation, host-mediated assay, Assay Code: HM2T, Evaluation Type: Evaluation A (Pre-1980)). Besides, the mutagenic call (Species/Cell Type: Syrian hamster embryo (SA7/SHE) cells, Assay Type: Cell transformation, viral enhanced, Assay Code: CT7+, Evaluation Type: Evaluation A (Pre-1980)) is “active; positive”. For the same compound, the call under setting [7] is recorded as “no conclusion”.

On to `CCCC(C)(COC(N)=O)COC(N)=O`, for which the mutagenic call (Species/Cell Type: Drosophila melanogaster, Assay Type: Aneuploidy, partial sex chromosome loss, chromosome aberrations, Assay Code: DAPT, Evaluation Type: Evaluation A (Pre-1980)) was “no conclusion”; the mutagenic call (Species/Cell Type: Drosophila melanogaster, Assay Type: Aneuploidy, whole sex chromosome loss, chromosome aberrations, Assay Code: DAC-M, Evaluation Type: Evaluation A (Pre-1980)) was “inactive; negative”; the mutagenic call under setting [5] is “inactive; negative”.

As to `c1ccc2ncccc2c1`, the mutagenic call was “active; positive” (Species/Cell Type: Nonhuman, Assay Type: Sister-chromatid exchange (SCE) in vitro, Assay Code: SC2+D, Dose Response: With dose response, Evaluation Type: Evaluation B (Post-1980)); “inactive; negative” (Species/Cell Type: Nonhuman, Assay Type: Sister-chromatid exchange (SCE) in vitro, Assay Code: SC2-, Evaluation Type: Evaluation A (Pre-1980)); “active; positive” under setting [8].

In the case of `O=C(Nc1cccc(Cl)c1)OCC#CCCl`, under “Species/Cell Type: Bacillus subtilis (H17 vs M45), Assay Type: Rec-assay, spot test, DNA effects (bacterial DNA repair), Assay Code: REW+, Evaluation Type: Evaluation A (Pre-1980)”, the mutagenic call is “active; positive”.

For the compound `c1ccc2c(c1)c1cccc3ccc4cccc2c4c31`, the mutagenic call by setting is: (Species/Cell Type: Chinese hamster lung (V79) cells, Assay Type: Forward gene mutation at the HPRT or ouabain locus, Assay Code: V79-, Evaluation Type: Evaluation A (Pre-1980)) “inactive; negative”; (Species/Cell Type: Escherichia coli polA (W3110 vs P3478), Assay Type: Rec-assay, DNA effects (bacterial DNA repair), Assay Code: RE2-, Evaluation Type: Evaluation A (Pre-1980)) “inactive; negative”; under setting [6], “no conclusion”; (Species/Cell Type: Fischer rat embryo (RLV/1706) cells, Assay Type: Cell transformation, viral enhanced, Assay Code: CTR-, Evaluation Type: Evaluation A (Pre-1980)) “inactive; negative”; (Species/Cell Type: Human diploid fibroblasts, Assay Type: Unscheduled DNA synthesis (UDS) in vitro, DNA effects, Assay Code: UDH+*, Activation: With metabolic activation, Evaluation Type: Evaluation A (Pre-1980)) “active; positive”; under setting [9], “inactive; negative”. Also, the mutagenic call is “no conclusion” (Species/Cell Type: Mouse lymphoma (L5178Y) cells, Assay Type: Forward gene mutation at the thymidine kinase (TK) locus, chromosome aberrations, Assay Code: L51T, Evaluation Type: Evaluation A (Pre-1980)); “no conclusion” (Species/Cell Type: Nonhuman, Assay Type: Sister-chromatid exchange (SCE) in vitro, Assay Code: SC2T, Evaluation Type: Evaluation B (Post-1980)); “active; positive” (Species/Cell Type: Nonhuman, Assay Type: Sister-chromatid exchange (SCE) in vivo, Assay Code: SC3+, Evaluation Type: Evaluation B (Post-1980)); “no conclusion” (Species/Cell Type: Nonhuman, Assay Type: Sister-chromatid exchange (SCE) in vivo, Assay Code: SC3T, Evaluation Type: Evaluation A (Pre-1980)); “inactive; negative” (Species/Cell Type: Saccharomyces cerevisiae, Assay Type: Mitotic recombination or gene conversion, Assay Code: YEH-, Evaluation Type: Evaluation A (Pre-1980)); “active; positive” under setting [8]. Besides, the mutagenic call under setting [10] was “inactive; negative”. Also, under setting [7], the call is “no conclusion”.

Turning to `OC(c1ccc2c(c1)OCO2)C1CO1` (stereo not drawn), the mutagenic call by setting is: (Species/Cell Type: Drosophila melanogaster, Assay Type: Sex-linked recessive lethal gene mutation, Assay Code: SRLT, Evaluation Type: Evaluation A (Pre-1980)) “no conclusion”; (Species/Cell Type: Salmonella typhimurium (one or more of the five standard strains: TA98, TA100, TA1535, TA1537, and TA1538), Assay Type: Histidine reverse gene mutation, Ames assay, Assay Code: SAL+, Evaluation Type: Evaluation A (Pre-1980)) “active; positive”.

Take `Oc1cccc2cc3cccc(O)c3c(O)c12`: the mutagenic call by setting is: (Species/Cell Type: Escherichia coli polA (W3119 vs P3478), Assay Type: Rec-assay, DNA effects (bacterial DNA repair), Assay Code: RE1+, Evaluation Type: Evaluation A (Pre-1980)) “active; positive”; (Species/Cell Type: Fischer rat embryo (RLV/1706) cells, Assay Type: Cell transformation, viral enhanced, Assay Code: CTR+, Evaluation Type: Evaluation A (Pre-1980)) “active; positive”; (Species/Cell Type: Mammalian polychromatic erythrocytes, Assay Type: Micronucleus test, chromosome aberrations, Assay Code: MNT-, Evaluation Type: Evaluation B (Post-1980)) “inactive; negative”; under setting [9], “inactive; negative”; (Species/Cell Type: Salmonella typhimurium (one or more of the five standard strains: TA98, TA100, TA1535, TA1537, and TA1538), Assay Type: Histidine reverse gene mutation, Ames assay, Assay Code: SAL-, Evaluation Type: Evaluation A (Pre-1980)) “inactive; negative”; (Species/Cell Type: Salmonella typhimurium, Assay Type: Forward and reverse gene mutation, host-mediated assay, Assay Code: HMA-, Evaluation Type: Evaluation A (Pre-1980)) “inactive; negative”. In addition, the mutagenic call under setting [10] is “inactive; negative”. Under setting [7], the call is recorded as “no conclusion”.
